Experimental data: patent US20170008841A1, “CRYSTAL FORMS OF ASTAXANTHIN” (DSM IP ASSETS B.V., priority 2008, published 2017)
Values after ≈ are worked out from the molar mass of the structure shown. Like-named read-outs stand apart in the source and are kept apart here. Blank lines part the entries; values can stand above or below the compound they belong to.

Legend:
Type in all cases: physicochemical
[1] = Solubility measurements of astaxanthin form I and II in different solvents
Description: The solubilities of astaxanthin form I and II in different solvents were compared. Due to the very low solubility in some solvents (Isopropanol and corn oil), experiments in these two solvents were measured by using an UV-VIS meter. The saturated solutions were prepared at different temperature in a double jacked vessel and 1 ml of the solution was taken out and measured by the UV-VIS meter. To calculate the real concentration in these solvents, the calibration was made firstly by building up the correlation between absorbance unit and solution concentration.

[2] = Stability of forms I and II in solid form / solid formulations (UV retention)
Description: Two solid formulations of the crystal forms I and II were prepared according to methods mentioned above. The formulations have been analyzed by Raman spectroscopy and—with regard to stability—by UV retention, a commonly used method for stability measurements.
The samples used in this experiment are: • Sample A: crystal form I prepared with methylene chloride • Sample B: crystal form II prepared with chloroform • For both formulations a matrix-composition consisting of a H2O-phase (Ca-Lignosulfonate & Yellow dextrin) and a Oil-phase (CH2Cl2) have been used. • Sample C: As a control commercial product Carophyll Pink 10%-CWS from DSM Nutritional Products Ltd was used. • In this case the following matrix-composition was used: H2O-phase: Ca-Lignosulfonate & Yellow dextrin; Oil-phase: CH2Cl2, & d,l-a-tocopherol, bees wax.)

[3] = Ideal solubility calculated of forms I and II in DCM from melting points and heat of fusion (DSC data)
Source text: The ideal solubility can be estimated by using the equation with measured melting points and heat of fusion form DCS data.

[4] = Solvent-mediated transformation, slurry conversion experiments (XRPD of resulting crystals)
Description: Solvent-mediated polymorphic transformation is an efficient technique to study the phase stability of different crystal forms in various solvents. […] As transformation rates in different solvents vary from minutes to years, an appropriate solvent should be chosen to either facilitate or retard the transformation.
Currently, the choice of a solvent is still done by trial and error, which is time consuming. In accordance with the present invention, the stability test was carried out by the slurry conversion experiments in six different solvents. Form II (and in one case form I) is suspended as the initial form and the resulting crystals were analyzed by XRPD.

Solubility ([1]; Acetone, 20° C.): 9.0 mg · 100 ml^−1 | Solubility ([1]; DCM, 20° C.): 1082.0 mg · 100 ml^−1 | Conc. ([1]; DCM, Exp. T 12.00 ° C.): 0.02 g/mL | Ln X ([1]; DCM, Exp. T 12.00 ° C.): −6.19 | Ratio (Conc.) form II to form I ([1]; DCM, Exp. T 12.00 ° C.): 1.68 | Conc. ([1]; DCM, Exp. T 21.80 ° C.): 0.02 g/mL | Ln X ([1]; DCM, Exp. T 21.80 ° C.): −5.96 | Ratio (Conc.) form II to form I ([1]; DCM, Exp. T 21.80 ° C.): 1.83 | Conc. ([1]; DCM, Exp. T 30.70 ° C.): 0.04 g/mL | Ln X ([1]; DCM, Exp. T 30.70 ° C.): −5.52 | Ratio (Conc.) form II to form I ([1]; DCM, Exp. T 30.70 ° C.): 1.54 | Solubility ([1]; EtOAc, 20° C.): 10.0 mg · 100 ml^−1 | Solubility ([1]; EtOH, 20° C.): 11.8 mg · 100 ml^−1 | Solubility ([1]; IPA, 20° C.): 6.0 mg · 100 ml^−1 | solubility in Isopropanol ([1]; Isopropanol, 30° C.): 3.4 mg·100 ml^−1 | solubility in acetone ([1]; acetone, 20.5° C.): approximately 8 mg·100 ml^−1 | stable in solid form ([2]; 20° C.): at least 90 days | Conc. (ideal solubility calculated) ([3]; DCM, Cal. T 12.00 ° C.): 0.02 g/mL | Ratio (Conc.) form II to form I (ideal solubility calculated) ([3]; DCM, Cal. T 12.00 ° C.): 3530.79 | Conc. (ideal solubility calculated) ([3]; DCM, Cal. T 21.80 ° C.): 0.04 g/mL | Ratio (Conc.) form II to form I (ideal solubility calculated) ([3]; DCM, Cal. T 21.80 ° C.): 1927.23 | Conc. (ideal solubility calculated) ([3]; DCM, Cal. T 30.70 ° C.): 0.06 g/mL | Ratio (Conc.) form II to form I (ideal solubility calculated) ([3]; DCM, Cal. T 30.70 ° C.): 1151.20 | Conc. (ideal solubility calculated) ([3]; DCM, Cal. T 39.00 ° C.): 0.08 g/mL | Ratio (Conc.) form II to form I (ideal solubility calculated) ([3]; DCM, Cal. T 39.00 ° C.): 731.67 | Final form after slurry conversion ([4]; DCM, 1 day, 20 ° C.): form I | Final form after slurry conversion ([4]; EtOAc, 4 days, 40 ° C.): form I
Structure (SMILES): CC1=C(/C=C/C(C)=C/C=C/C(C)=C/C=C/C=C(C)/C=C/C=C(C)/C=C/C2=C(C)C(=O)[C@@H](O)CC2(C)C)C(C)(C)C[C@H](O)C1=O (relative stereo) [form II, all-trans-astaxanthin]

Solubility [1]: 200.0 mg · 100 ml^−1 | solubility [1]: 10 to 20 mg/mL (≈ 16.8 to 33.5 mM) | stable in solid form [2]: at least 5 months | stable in solid form ([2]; 20° C.-40° C.): at least 90 days | Conc. (ideal solubility calculated) [3]: 0.00 g/mL | Final form after slurry conversion ([4]; Chloroform, 1 day, 20 ° C.): form II
Structure (SMILES): CC1=C(/C=C/C(C)=C/C=C/C(C)=C/C=C/C=C(C)/C=C/C=C(C)/C=C/C2=C(C)C(=O)[C@@H](O)CC2(C)C)C(C)(C)C[C@H](O)C1=O (relative stereo) [form I, all-trans-astaxanthin]
